For assay [1], the target named is T1, Olfr2 (Mus musculus, UniProt Q9QWU6).
T1 sequence (Q9QWU6 1-327): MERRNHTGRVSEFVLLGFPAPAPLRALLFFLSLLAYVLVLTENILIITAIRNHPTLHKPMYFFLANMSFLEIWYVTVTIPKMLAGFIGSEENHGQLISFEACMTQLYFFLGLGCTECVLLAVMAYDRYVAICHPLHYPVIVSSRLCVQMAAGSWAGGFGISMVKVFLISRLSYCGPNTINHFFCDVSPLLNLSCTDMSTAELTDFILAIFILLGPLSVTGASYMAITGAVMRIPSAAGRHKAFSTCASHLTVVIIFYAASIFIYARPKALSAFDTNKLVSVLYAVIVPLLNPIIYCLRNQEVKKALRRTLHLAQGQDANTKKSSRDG
Description: Secreted cytokines in supernatants of stimulated aortas (cytokine bead array). The following applies: octanal 10 μM + LPS 500 ng/mL, 12 h, cytometric bead array. More on the design: Olfr2 expression was confirmed at the protein level on F4/80^+ vascular macrophages; from tissue; host or cells: explanted whole aortas, digested aortic cell suspensions (F4/80+ vascular macrophages) and blood monocytes of Apoe-/- C57BL/6J mice; living Apoe-/- mice for the in vivo study. The assay is classed as cell-based. The procedure: Apoe^−/− mice were fed WD for 2 weeks before sacrifice for aorta explant culture. Whole aortas were incubated in culture medium with DMSO (0.1% as a vehicle), octanal (Oct, 10 μM), LPS (500 ng/mL) alone or octanal and LPS combined (LPS+Oct) for 12 h at 37° C. and 5% CO2. Subsequently, aortas were collected and further processed as below discussed for RNA extraction, and flow cytometry analysis. Culture supernatants were collected, aliquoted, and frozen at −80° C. until further analysis.
Supernatants of stimulated cells and aortic tissue were analyzed by BD CBA Flex Sets (BD Biosciences) for mouse TNFα, CCL2, CCL4, IL-1β, or human TNF, IL6, and IL-1β according to the manufacturer's protocol. Samples were analyzed with LSR-II (BD Biosciences). Data was acquired with FACSDiva software (BD Biosciences) and analyzed with FCAP array software 3.0 (BD Biosciences).

Assay [2] has as its system OR6A2. Kind of assay: OR6A2 expression in hMDMs (real time PCR, flow cytometry). Particulars: LPS + octanal. The assay is classed as cell-based, human. As for the experimental part:
(§1) BMDMs and hMDMs were incubated in culture media for 12 h at 37° C. and 5% CO2 with Oct, (10 μM), LPS (500 ng/mL) alone or combined with Oct (LPS+Oct) and DMSO (0.1%) as a control and lysed with Qiazol (500 μL; Qiagen) Similarly, whole aortas incubated as previously described were transferred into Qiazol (500 μl; Qiagen) and digested with gentleMACS™ Dissociator (Miltenyi).
Total RNA was quantified using a nanodrop spectrophotometer (Peqlab) and 500 ng were reverse transcribed into cDNA using Omniscript reverse transcriptase (Qiagen). Real time PCR reactions were performed according to the RT^2 SYBR green gene expression assay protocol (Qiagen). RT2 SYBR Green qPCR master mix and premade RT^2 qPCR Primer Assays for mouse Olfr2, Rtp1, Rtp2, Ccl2, Ccl4, Tnf, Nos2 and Gapdh were used. Similarly, real time PCR analysis of hMDMs samples was performed following the RT^2 SYBR green gene expression assay protocol (Qiagen), applying RT^2 SYBR Green qPCR master mix and premade RT^2 qPCR Primer Assays for human OR6A2, TNF, IL-6, NOS2 and GAPDH. The results were calculated applying the 2^−ΔΔCT method^32 using Gapdh/GAPDH as housekeeping gene.
BMDMs, hMDMs, mouse blood leukocytes and whole mount aortas were incubated in culture medium with Oct, (10 μM), LPS, (500 ng/mL) alone or combined (LPS+Oct) for 12h at 37° C. and 5% CO2. […]
(Quantitative PCR measures a nucleic acid by following its amplification.)

Assay [3] has as its system Olfr2. Description: Olfr2 mRNA and protein expression in BMDMs (real time PCR, western blot, flow cytometry). In kind it is cell-based, mouse. The following applies: 12 h. As for the experimental part:
Olfr2 expression in BMDMs was investigated. Briefly, bone marrow cells from Apoe^−/− mice were stimulated with MCSF (20 ng/ml) for 7 d to generate BMDMs, which were left untreated or incubated with the Olfr2 agonist octanal (Oct, 10 μM), LPS, (500 ng/mL), or with both for 12 h.
as §1
BMDMs, hMDMs, mouse blood leukocytes and whole mount aortas were incubated in culture medium with Oct, (10 μM), LPS, (500 ng/mL) alone or combined (LPS+Oct) for 12h at 37° C. and 5% CO2. After the incubation aortas were cut into small pieces and digested for cell suspension as previously described^18. […]
For Olfr2 protein detection in BMDMs, cells were incubated in culture medium with Oct, (10 μM), LPS, (500 ng/mL) alone or combined (LPS+Oct) for 12h at 37° C. and 5% CO2. […] Total protein content was quantified using DC Protein Assay (Bio-Rad) and solubilized in a volume ratio of 1:1 with Laemmli Buffer (Bio-Rad). […]

Results on one compound are retold here after US20210145768A1, “MODULATING IMMUNE RESPONSE VIA TARGETING OF OLFACTORY RECEPTOR ACTIVITY” (La Jolla Institute for Allergy and Immunology, priority 2018, published 2021).

Take `CCCCCCCC=O` [octanal]: the results for the “secretion of TNF, CCL2 and CCL4 protein into supernatant of treated aortas” value in assay [1] and in assay [1] (listed as Octanal) were “enhanced production” and “enhanced the secretion”, respectively. The “OR6A2 mRNA expression in hMDMs” value in assay [2] is listed as “further augmented”. For the same compound, the “Olfr2 mRNA and protein expression in BMDMs” value is reported as “potentiated” in assay [3] (LPS + octanal combined) and “enhanced” in assay [3] (octanal 10 μM).
